For this test, the target named is human 5-HT2C receptor (Homo sapiens, UniProt P28335, I156V/I160V/N158S). Nature of the test: cell-based.
Sequence of human 5-HT2C receptor (P28335 33-458 I156V/N158S/I160V limits assumed): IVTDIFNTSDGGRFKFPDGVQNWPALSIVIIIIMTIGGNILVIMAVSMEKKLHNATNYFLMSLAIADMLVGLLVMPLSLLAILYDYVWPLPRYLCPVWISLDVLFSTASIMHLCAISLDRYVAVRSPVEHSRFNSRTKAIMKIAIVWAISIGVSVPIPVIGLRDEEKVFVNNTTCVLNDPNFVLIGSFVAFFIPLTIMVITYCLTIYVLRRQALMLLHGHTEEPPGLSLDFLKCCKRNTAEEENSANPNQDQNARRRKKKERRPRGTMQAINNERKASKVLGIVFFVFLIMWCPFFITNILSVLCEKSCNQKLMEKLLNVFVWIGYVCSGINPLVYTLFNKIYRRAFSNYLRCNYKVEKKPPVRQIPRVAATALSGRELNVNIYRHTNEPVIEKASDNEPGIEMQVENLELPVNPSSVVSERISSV
Take `O=C(CC1CN(c2c3c(nc4ccnn24)CCNCC3)C1)N1CCc2cc(F)ccc21` [Example 33.2]: the EC50 (in general, the concentration that produces a half-maximal response) is 0.02 µM.
Under `O=C(C1CN(c2c3c(nc4c(Br)cnn24)CCNCC3)C1)N1CCC2(CCCCC2)C1` [Example 31.134] stands 0.117 µM.
Under `CN1CCc2nc3ccnn3c(N3CC(C(=O)NC4CCCC(C(F)(F)F)C4)C3)c2CC1` (stereo not shown) [Example 36.45] stands 0.087 µM; under `O=C(C1CN(c2c3c(nc4ccnn24)CCNCC3)C1)N1CCC2(CC2)C1` [Example 31.14], 0.087 µM; under `CC1CN(C(=O)C2CN(c3c4c(nc5c(Br)cnn35)CCNCC4)C2)CC(C)O1` (stereo not shown) [Example 31.140], 0.065 µM.
Under `O=C(C1CN(c2c3c(nc4ccnn24)CCNCC3)C1)N1CCC(c2cccc(Cl)c2)CC1` [Example 31.111] stands 0.056 µM; under `COc1ccc2c(c1)CCN(c1c3c(nc4ccnn14)CCNCC3)C2` [Example 1.23], 0.522 µM; under `FC(F)(F)c1ccnc(OC2CN(c3c4c(nc5ccnn35)CCNCC4)C2)c1` [Example 20.9], 0.084 µM.
In the case of `CN1CCc2nc3ccnn3c(N3CC(C(=O)NC4CCOCC4)C3)c2CC1` [Example 36.35], the EC50 stood at 0.114 µM.
Under `CCC(C)CNC(=O)C1CN(c2c3c(nc4ccnn24)CCNCC3)C1` (stereo not shown) [Example 37.86] stands 0.041 µM.
`FC(F)(F)Oc1ccc(OC2CN(c3c4c(nc5ccnn35)CCNCC4)C2)cc1` [Example 35.32] displayed an EC50 of 0.411 µM.
In the case of `FC(F)(F)c1cccnc1OC1CN(c2c3c(nc4ccnn24)CCNCC3)C1` [Example 20.12], the EC50 came to 0.959 µM.
Under `CC1CNCCc2c1nc1ccnn1c2N1CCC1` (stereo not shown) [Example 3.1] stands 0.003 µM; under `C[C@@H]1C[C@H](C)CN(C(=O)C2CN(c3c4c(nc5ccnn35)CCNCC4)C2)C1` [Example 31.180], 0.036 µM; under `O=C(NCc1ccccc1)C1CCN(c2c3c(nc4ccnn24)CCNCC3)CC1` [Example 1.24], 1.31 µM.
Under `OC1CN(c2c3c(nc4ccnn24)CCNCC3)C1` [Example 1.2] stands 0.127 µM; under `FC(F)(F)c1ccc2c(c1)nc(C1CN(c3c4c(nc5ccnn35)CCNCC4)C1)n2Cc1ccccc1` [Example 34.34], 2.09 µM.
For `Fc1cccc(OC2CN(c3c4c(nc5ccnn35)CCNCC4)C2)c1` [Example 1.9], the 50% effective concentration (EC50) was found to be 0.026 µM.
`COc1ccc(OC2CN(c3c4c(nc5c(C)cnn35)CCNCC4)C2)cc1` [Example 27.2] returned a concentration for a half-maximal effect (EC50) of 0.055 µM.
Regarding `OC1CCN(c2c3c(nc4ccnn24)CCNCC3)CC1` [Example 1.36], the response was half-maximal at 1.85 µM (EC50).
Under `O=C(CC1CN(c2c3c(nc4ccnn24)CCNCC3)C1)N1CCc2ccccc21` [Example 33.1] stands 0.019 µM.
Under `Cn1c(C2CN(c3c4c(nc5ccnn35)CCNCC4)C2)nc2cc(C#N)ccc21` [Example 34.18] stands 0.388 µM.
Under `c1ccc(OC2CN(c3c4c(nc5ccnn35)CCNCC4)C2)nc1` [Example 20.6] stands 0.038 µM; under `CCOc1cccc(OC2CN(c3c4c(nc5ccnn35)CCNCC4)C2)c1` [Example 35.27], 0.093 µM.
For the compound `CC1CCCN1C(=O)C1CN(c2c3c(nc4ccnn24)CCNCC3)C1` (stereo not shown) [Example 31.73], the half-maximal effective concentration (EC50) was found to be 0.252 µM.
Under `CN(CC1CCCCC1)C(=O)C1CN(c2c3c(nc4ccnn24)CCNCC3)C1` [Example 31.100] stands 0.158 µM.
Under `O=C(NCCN1CCCCC1)C1CN(c2c3c(nc4ccnn24)CCNCC3)C1` [Example 37.81] stands 0.04 µM; under `O=C(C1CN(c2c3c(nc4ccnn24)CCNCC3)C1)N1CCc2ccccc2C1` [Example 31.60], 0.057 µM; under `Cc1cnn2c(N3CC(C(=O)N4CCC5(CCCCC5)CC4)C3)c3c(nc12)CCNCC3` [Example 31.235], 0.084 µM.
Under `c1cc2nc3c(c(N4CC(OCC5CC5)C4)n2n1)CCNCC3` [Example 20.3] stands 0.469 µM.
Consider `c1ccc(CCn2c(C3CN(c4c5c(nc6ccnn46)CCNCC5)C3)nc3ccccc32)cc1` [Example 34.36], for which the EC50 was 0.353 µM.
Under `O=C(C1CN(c2c3c(nc4ccnn24)CCNCC3)C1)N1CCC(c2ccc(C(F)(F)F)cc2)CC1` [Example 31.109] stands 0.083 µM; under `CN(C)CCNC(=O)C1CN(c2c3c(nc4ccnn24)CCNCC3)C1` [Example 37.74], 0.029 µM; under `CC(C)c1ccccc1OC1CCN(C(=O)C2CN(c3c4c(nc5ccnn35)CCNCC4)C2)CC1` [Example 31.219], 0.124 µM.
Under `CC(C)CN1CCN(C(=O)C2CN(c3c4c(nc5ccnn35)CCNCC4)C2)CC1` [Example 37.15] stands 0.003 µM.
Under `CC1CCCC(NC(=O)C2CN(c3c4c(nc5ccnn35)CCNCC4)C2)C1` (stereo not shown) [Example 37.70] stands 0.069 µM; under `c1ccc(COC2CN(c3c4c(nc5ccnn35)CCNCC4)C2)cc1` [Example 20, 10-(3-Benzyloxy-azetidin-1-yl)-6,7,8,9-tetrahydro-5H-1,4,7,10a-tetraaza-cyclohepta[f]indene], 0.35 µM.
As to `CC1CC(c2ccccc2)CN1C(=O)C1CN(c2c3c(nc4ccnn24)CCNCC3)C1` (stereo not shown) [Example 31.128], the EC50 is 0.054 µM.
Under `Cc1cccc(OC2CN(c3c4c(nc5ccnn35)CCNCC4)C2)c1` [Example 35.51] stands 0.126 µM; under `O=C(C1CC1)N1CCN(C(=O)C2CN(c3c4c(nc5ccnn35)CCNCC4)C2)CC1` [Example 37.56], 0.01 µM; under `CC1CNCCc2c1nc1ccnn1c2N1CC(C(=O)N2CCC(C)(C)C2)C1` (stereo not shown) [Example 42, (3,3-Dimethyl-pyrrolidin-1-yl)-[1-(5-methyl-6,7,8,9-tetrahydro-5H-1,4,7,10a-tetraaza-cyclohept[f]inden-10-yl)-azetidin-3-yl]-methanone], 0.031 µM.
Under `CC(C)(C)CNC(=O)C1CN(c2c3c(nc4ccnn24)CCNCC3)C1` [Example 37.76] stands 0.065 µM; under `c1cc2c(c(OC3CN(c4c5c(nc6ccnn46)CCNCC5)C3)c1)CCCC2` [Example 35.25], 0.666 µM; under `COc1ccc2c(c1)CCN2C(=O)CC1CN(c2c3c(nc4ccnn24)CCNCC3)C1` [Example 33.3], 0.012 µM.
Under `C#CCCN(CC(C)C)C(=O)C1CN(c2c3c(nc4ccnn24)CCNCC3)C1` [Example 31.106] stands 0.184 µM; under `CC1(C)CCN(C(=O)C2CN(c3c4c(nc5ccnn35)CCNCC4)C2)C1` [Example 31.53], 0.008 µM; under `COc1cc(F)ccc1OCC1CN(c2c3c(nc4ccnn24)CCNCC3)C1` [Example 15.8], 0.006 µM.
For the compound `CS(=O)(=O)N1CCN(C(=O)C2CN(c3c4c(nc5ccnn35)CCNCC4)C2)CC1` [Example 37.45], the EC50 stood at 0.002 µM.
Under `CCCN(C)C(=O)C1CN(c2c3c(nc4ccnn24)CCNCC3)C1` [Example 31.66] stands 0.36 µM; under `COc1ccc(OC2CN(c3c4c(nc5ccnn35)CCNCC4)C2)c(Cl)c1` [Example 35.19], 0.087 µM; under `CN1CCc2nc3ccnn3c(N3CC(C(=O)N4CC(N(C)C)C4)C3)c2CC1` [Example 36.48], 0.269 µM.
Under `CC(CC1CCCCC1)NC(=O)C1CN(c2c3c(nc4ccnn24)CCNCC3)C1` (stereo not shown) [Example 37.108] stands 0.072 µM.

Source of the values: patent US20120165304A1, “6,7,8,9-Tetrahydro-5H-1,4,7,10a-tetraaza-cyclohept[f]indene derivatives, pharmaceutical compositions containing these compounds, their use and processes for preparing them” (BOEHRINGER INGELHEIM INTERNATIONAL GMBH, priority 2008, published 2012).
